Assay results from patent US20070128217A1 (priority 2003, published 2007).

Tests used:
[1] = test system: rabbit serum obtained by immunizing a rabbit with the SARS-CoV strain Frankfurt 1; format: binding; design: Binding of a rabbit serum to linear peptides / Binding of a rabbit serum to looped peptides / Rabbit serum linear peptides / Rabbit serum looped peptides / Binding of a rabbit serum to linear peptides of protein N of SARS-CoV Urbani (Rabbit serum linear peptides) / Binding of a rabbit serum to looped/cyclic peptides of protein N of SARS-CoV Urbani (Rabbit serum looped peptides): unit not given here
[2] = test system: recombinant human anti-SARS-CoV antibody 03-018; format: binding; design: Binding of antibody 03-018 to linear peptides of the N protein of SARS-CoV Urbani / Binding of antibody 03-018 to looped/cyclic peptides of the N protein of SARS-CoV Urbani: unit not given here
[3] = test system: control sera (pooled serum of ten healthy LUMC hospital workers; commercial negative donor pooled serum from the Dutch bloodbank); format: binding, human; design: Binding of Control serum LUMC to linear peptides / Binding of Control serum Blood-bank to linear peptides / Binding of Control serum LUMC to looped peptides / Binding of Control Serum Blood-Bank to Looped peptides / Binding of Control serum LUMC to linear peptides of the protein M of SARS-CoV Urbani / Binding of Control serum Blood-bank to linear peptides of the protein M of SARS-CoV Urbani / Binding of Control serum LUMC to looped peptides of the protein M of SARS-CoV Urbani / Binding of Control Serum Blood-Bank to Looped peptides of the protein M of SARS-CoV Urbani: unit not given here

For KRTATKQYNVTQAFG, the “Recognition of the peptide by the rabbit serum” value [1] was “recognized”, the “Binding of antibody 03-018 to linear peptides of the N protein of SARS-CoV Urbani” value [2] was 0.1 and the “Binding of antibody 03-018 to looped/cyclic peptides of the N protein of SARS-CoV Urbani” value [2] was 0.2. The “Binding of Control Serum Blood-Bank to Looped peptides” value [3] was 0.6, the “Binding of Control serum Blood-bank to linear peptides” value [3] was 0.7 and the “Binding of Control serum LUMC to linear peptides” value [3] was 0.8. The “Binding of Control serum LUMC to looped peptides” value [3] was 0.6.
For PQGTTLPKGFYAEGS, the “Binding of a rabbit serum to linear peptides of protein N of SARS-CoV Urbani (Rabbit serum linear peptides)” value (from here on “Binding … (Rabbit serum linear peptides)”) [1] was 0.1, the “Binding of a rabbit serum to looped/cyclic peptides of protein N of SARS-CoV Urbani (Rabbit serum looped peptides)” value [1] was 0.5 and the “Binding of antibody 03-018 to linear peptides of the N protein of SARS-CoV Urbani” value [2] was 0.1. For the same sequence, the “Binding of antibody 03-018 to looped/cyclic peptides of the N protein of SARS-CoV Urbani” value [2] was 0.2, the “Binding of Control Serum Blood-Bank to Looped peptides” value [3] was 0.6 and the “Binding of Control serum Blood-bank to linear peptides” value [3] was 0.7. For the same sequence, the “Binding of Control serum LUMC to linear peptides” value [3] was 0.6 and the “Binding of Control serum LUMC to looped peptides” value [3] was 0.6.
NAATVLQLPQGTTLP was tested, and the “Binding … (Rabbit serum linear peptides)” value [1] was 0.2, the “Binding of a rabbit serum to looped/cyclic peptides of protein N of SARS-CoV Urbani (Rabbit serum looped peptides)” value [1] was 0.0 and the “Binding of antibody 03-018 to linear peptides of the N protein of SARS-CoV Urbani” value [2] was 0.1. For the same sequence, the “Binding of antibody 03-018 to looped/cyclic peptides of the N protein of SARS-CoV Urbani” value [2] was 0.2, the “Binding of Control Serum Blood-Bank to Looped peptides” value [3] was 0.6 and the “Binding of Control serum Blood-bank to linear peptides” value [3] was 0.7. The “Binding of Control serum LUMC to linear peptides” value [3] was 0.5 and the “Binding of Control serum LUMC to looped peptides” value [3] was 0.4.
KLDDKDPQFKDNVIL was tested, and the “Binding … (Rabbit serum linear peptides)” value [1] was 0.1, the “Binding of a rabbit serum to looped/cyclic peptides of protein N of SARS-CoV Urbani (Rabbit serum looped peptides)” value [1] was 0.2 and the “Binding of antibody 03-018 to linear peptides of the N protein of SARS-CoV Urbani” value [2] was 0.1. For the same sequence, the “Binding of antibody 03-018 to looped/cyclic peptides of the N protein of SARS-CoV Urbani” value [2] was 0.2, the “Control Serum Blood-Bank Looped peptides” value [3] was 0.7 and the “Control serum Blood-bank linear peptides” value [3] was 0.8. For the same sequence, the “Control serum LUMC linear peptides” value [3] was 0.7 and the “Control serum LUMC looped peptides” value [3] was 0.8.
With RQKRTATKQYNVTQA the “Recognition of the peptide by the rabbit serum” value [1] was “recognized”, the “Binding of antibody 03-018 to linear peptides of the N protein of SARS-CoV Urbani” value [2] was 0.1 and the “Binding of antibody 03-018 to looped/cyclic peptides of the N protein of SARS-CoV Urbani” value [2] was 0.2. For the same sequence, the “Binding of Control Serum Blood-Bank to Looped peptides” value [3] was 0.9, the “Binding of Control serum Blood-bank to linear peptides” value [3] was 0.9 and the “Binding of Control serum LUMC to linear peptides” value [3] was 0.8. The “Binding of Control serum LUMC to looped peptides” value [3] was 0.8.
